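Tested at 5 concentrations; 48 h exposure; 96-well plates; endpoints linearly interpolated, else capped at highest concentration. Abbreviation: GI50, concentration required for 50% inhibition of growth. TGI: concentration producing complete growth inhibition.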
Key:
Assay in all cases: NCI-60 cell line screen, 48 h
SN12C renal = tested on: SN12C renal
OVCAR-8 ovarian = tested on: OVCAR-8 ovarian
OVCAR-5 ovarian = tested on: OVCAR-5 ovarian
PC-3 prostate = tested on: PC-3 prostate
SK-MEL-5 melanoma = tested on: SK-MEL-5 melanoma
SF-295 CNS = tested on: SF-295 CNS
NCI-H23 lung = tested on: NCI-H23 lung
DU-145 prostate = tested on: DU-145 prostate
SK-MEL-2 melanoma = tested on: SK-MEL-2 melanoma
A549 NSCLC = tested on: A549 NSCLC
SR leukemia = tested on: SR leukemia
ACHN renal = tested on: ACHN renal
HS 578T breast = tested on: HS 578T breast
NCI-H460 lung = tested on: NCI-H460 lung
HOP-62 NSCLC = tested on: HOP-62 NSCLC
NCI/ADR-RES ovarian = tested on: NCI/ADR-RES ovarian
786-0 renal = tested on: 786-0 renal
RXF 393 renal = tested on: RXF 393 renal
A498 renal = tested on: A498 renal
IGROV1 ovarian = tested on: IGROV1 ovarian
SF-268 CNS = tested on: SF-268 CNS
MDA-MB-435 = tested on: MDA-MB-435
SW-620 colon = tested on: SW-620 colon
MCF7 breast = tested on: MCF7 breast
CCRF-CEM leukemia = tested on: CCRF-CEM leukemia
SK-MEL-28 melanoma = tested on: SK-MEL-28 melanoma
BT-549 breast = tested on: BT-549 breast
U251 CNS = tested on: U251 CNS
MDA-MB-231 breast = tested on: MDA-MB-231 breast
SF-539 CNS = tested on: SF-539 CNS
NCI-H226 lung = tested on: NCI-H226 lung
OVCAR-3 ovarian = tested on: OVCAR-3 ovarian
K-562 leukemia = tested on: K-562 leukemia
LOX IMVI melanoma = tested on: LOX IMVI melanoma
HCT-116 colon = tested on: HCT-116 colon
HT29 colon = tested on: HT29 colon
SK-OV-3 ovarian = tested on: SK-OV-3 ovarian
EKVX NSCLC = tested on: EKVX NSCLC
OVCAR-4 ovarian = tested on: OVCAR-4 ovarian
HOP-92 NSCLC = tested on: HOP-92 NSCLC
MALME-3M melanoma = tested on: MALME-3M melanoma
COLO 205 colon = tested on: COLO 205 colon
HCT-15 colon = tested on: HCT-15 colon
HCC-2998 colon = tested on: HCC-2998 colon
NCI-H522 lung = tested on: NCI-H522 lung
UO-31 renal = tested on: UO-31 renal
SNB-75 CNS = tested on: SNB-75 CNS
RPMI-8226 leukemia = tested on: RPMI-8226 leukemia
TK-10 renal = tested on: TK-10 renal
CAKI-1 renal = tested on: CAKI-1 renal
KM12 colon = tested on: KM12 colon
HL-60(TB) leukemia = tested on: HL-60(TB) leukemia
T-47D breast = tested on: T-47D breast
MOLT-4 leukemia = tested on: MOLT-4 leukemia
SNB-19 CNS = tested on: SNB-19 CNS
UACC-62 melanoma = tested on: UACC-62 melanoma
M14 melanoma = tested on: M14 melanoma
UACC-257 melanoma = tested on: UACC-257 melanoma

COC(=O)c1ccc2[nH]c(O)c(C(=Nc3ccc(N(C)C(=O)CN4CCN(C)CC4)cc3)c3ccc4c(c3)OCO4)c2c1
GI50 (SN12C renal): 321 nM | TGI (SN12C renal): 9610 nM | GI50 (OVCAR-8 ovarian): 774 nM | TGI (OVCAR-8 ovarian): 7340 nM | GI50 (OVCAR-5 ovarian): 1710 nM | TGI (OVCAR-5 ovarian): 3720 nM | GI50 (PC-3 prostate): 489 nM | TGI (PC-3 prostate): 3390 nM | GI50 (SK-MEL-5 melanoma): 878 nM | TGI (SK-MEL-5 melanoma): 2170 nM | GI50 (SF-295 CNS): 754 nM | TGI (SF-295 CNS): 2160 nM | GI50 (NCI-H23 lung): 612 nM | TGI (NCI-H23 lung): 2850 nM | GI50 (DU-145 prostate): 1030 nM | TGI (DU-145 prostate): 6060 nM | GI50 (SK-MEL-2 melanoma): 1240 nM | TGI (SK-MEL-2 melanoma): 3690 nM | GI50 (A549 NSCLC): 1090 nM | TGI (A549 NSCLC): 4120 nM | GI50 (SR leukemia): 232 nM | TGI (SR leukemia): 2930 nM | GI50 (ACHN renal): 1580 nM | TGI (ACHN renal): 7110 nM | GI50 (HS 578T breast): 144 nM | TGI (HS 578T breast): 2560 nM | GI50 (NCI-H460 lung): 902 nM | TGI (NCI-H460 lung): 2650 nM | GI50 (HOP-62 NSCLC): 939 nM | TGI (HOP-62 NSCLC): 4530 nM | GI50 (NCI/ADR-RES ovarian): 10700 nM | TGI (NCI/ADR-RES ovarian): 34000 nM | GI50 (786-0 renal): 692 nM | TGI (786-0 renal): 2140 nM | GI50 (RXF 393 renal): 360 nM | TGI (RXF 393 renal): 1520 nM | GI50 (A498 renal): 703 nM | TGI (A498 renal): 2180 nM | GI50 (IGROV1 ovarian): 176 nM | TGI (IGROV1 ovarian): 1520 nM | GI50 (SF-268 CNS): 929 nM | TGI (SF-268 CNS): 3860 nM | GI50 (MDA-MB-435): 724 nM | TGI (MDA-MB-435): 2190 nM | GI50 (SW-620 colon): 348 nM | TGI (SW-620 colon): 2210 nM | GI50 (MCF7 breast): 327 nM | TGI (MCF7 breast): 1800 nM | GI50 (CCRF-CEM leukemia): 388 nM | TGI (CCRF-CEM leukemia): 6250 nM | GI50 (SK-MEL-28 melanoma): 1210 nM | TGI (SK-MEL-28 melanoma): 2920 nM | GI50 (BT-549 breast): 1060 nM | TGI (BT-549 breast): 2470 nM | GI50 (U251 CNS): 884 nM | TGI (U251 CNS): 2500 nM | GI50 (MDA-MB-231 breast): 1080 nM | TGI (MDA-MB-231 breast): 2760 nM | GI50 (SF-539 CNS): 341 nM | TGI (SF-539 CNS): 1310 nM | GI50 (NCI-H226 lung): 616 nM | TGI (NCI-H226 lung): 6130 nM | GI50 (OVCAR-3 ovarian): 638 nM | TGI (OVCAR-3 ovarian): 2230 nM | GI50 (K-562 leukemia): 56 nM | TGI (K-562 leukemia): 6160 nM | GI50 (LOX IMVI melanoma): 415 nM | TGI (LOX IMVI melanoma): 1900 nM | GI50 (HCT-116 colon): 197 nM | TGI (HCT-116 colon): 1520 nM | GI50 (HT29 colon): 553 nM | TGI (HT29 colon): > 27800 nM | GI50 (SK-OV-3 ovarian): 197 nM | TGI (SK-OV-3 ovarian): 1190 nM | GI50 (EKVX NSCLC): 1400 nM | TGI (EKVX NSCLC): 3450 nM | GI50 (OVCAR-4 ovarian): 761 nM | TGI (OVCAR-4 ovarian): 2720 nM | GI50 (HOP-92 NSCLC): 2090 nM | TGI (HOP-92 NSCLC): 7750 nM | GI50 (MALME-3M melanoma): 895 nM | TGI (MALME-3M melanoma): 2290 nM | GI50 (COLO 205 colon): 369 nM | TGI (COLO 205 colon): 1740 nM | GI50 (HCT-15 colon): 1520 nM | TGI (HCT-15 colon): 5800 nM | GI50 (HCC-2998 colon): 1000 nM | TGI (HCC-2998 colon): 2690 nM | GI50 (NCI-H522 lung): 859 nM | TGI (NCI-H522 lung): 3660 nM | GI50 (UO-31 renal): 1300 nM | TGI (UO-31 renal): 3710 nM | GI50 (SNB-75 CNS): 75.2 nM | TGI (SNB-75 CNS): 1650 nM | GI50 (RPMI-8226 leukemia): 655 nM | TGI (RPMI-8226 leukemia): 2830 nM | GI50 (TK-10 renal): 1360 nM | TGI (TK-10 renal): 3140 nM | GI50 (CAKI-1 renal): 260 nM | TGI (CAKI-1 renal): 4070 nM | GI50 (KM12 colon): 42.9 nM | TGI (KM12 colon): 1690 nM | GI50 (HL-60(TB) leukemia): 415 nM | TGI (HL-60(TB) leukemia): 1820 nM | GI50 (T-47D breast): 739 nM | TGI (T-47D breast): 8000 nM | GI50 (MOLT-4 leukemia): 323 nM | TGI (MOLT-4 leukemia): 2400 nM | GI50 (SNB-19 CNS): 1060 nM | TGI (SNB-19 CNS): 6050 nM | GI50 (UACC-62 melanoma): 2100 nM | TGI (UACC-62 melanoma): 6860 nM | GI50 (M14 melanoma): 538 nM | TGI (M14 melanoma): 1800 nM | GI50 (UACC-257 melanoma): 2270 nM | TGI (UACC-257 melanoma): 6770 nM

From PubChem BioAssay (NCI)
